Here are results for 16 molecules from US12552825B2 (Zikani Therapeutics, Inc., priority 2019, dated 2026).

≈ marks a conversion by molar mass, not a printed value.

Assay type in all cases: cell-based
One assay deals with A. baumannii MP-15. Put plainly: MIC determination by CLSI broth dilution, A. baumannii MP-15. Conditions: Acinetobacter baumannii, MP15, strain MP-15, read-out: MIC A. baumanii MP-15. Background: In broth dilution the organism is exposed to a series of concentrations in liquid medium.
In another assay the test system is P. aeruginosa MP-3. The assay is described as follows: MIC determination by CLSI broth dilution, P. aeruginosa MP-3. Conditions: Pseudomonas aeruginosa, MP3, strain MP-3.
Another assay has as its system E. coli MP-4. The assay is described as follows: MIC determination by CLSI broth dilution, E. coli MP-4. Conditions: Escherichia coli, MP4, CLSI broth dilution; strain MP-4.
For another assay, the system named is S. aureus MP-12. Put plainly: microbe, parasite or virus in culture. Conditions: Staphylococcus aureus, MP12, read-out: MIC S. aureus MP-12.
A further assay deals with K. pneumoniae MP-648. Put plainly: MIC determination by CLSI broth dilution, K. pneumoniae MP-648. Conditions: Klebsiella pneumoniae, MP648, CLSI broth dilution; strain MP-648.
The test system of a further assay is K. pneumoniae MP-546. The assay is described as follows: MIC determination by CLSI broth dilution, K. pneumoniae MP-546. Conditions: Klebsiella pneumoniae, MP546, CLSI broth dilution; strain MP-546.

With `CCN(C)CC[C@@H](O)[C@@H]1COC(=O)C(C)(C)C(=O)[C@H](C)[C@@H](O[C@@H]2O[C@H](C)C[C@H](N(C)C)[C@H]2O)[C@](C)(OC)C[C@@H](C)CN1CC` [Compound 168], the MIC with A. baumannii MP-15 was more than 32 µg/mL; with P. aeruginosa MP-3, more than 32 µg/mL; with E. coli MP-4 it was less than 4 µg/mL; in the assay with S. aureus MP-12, 4 to 32 µg/mL (≈ 6.35 to 50.8 µM); in the assay with K. pneumoniae MP-648, less than 4 µg/mL; in the assay on K. pneumoniae MP-546 it was 4 to 32 µg/mL (≈ 6.35 to 50.8 µM).
For `CO[C@]1(C)C[C@@H](C)CN(C)[C@@H](CCCN(C)C(C)(C)C)COC(=O)C(C)(C)C(=O)[C@H](C)[C@H]1O[C@@H]1O[C@H](C)C[C@H](N(C)C)[C@H]1O` [Compound 7, (3S,6R,8R,9R,10R)-3-(3-(tert-butyl(methyl)amino)propyl)-9-(((2S,3R,4S,6R)-4-(dimethylamino)-3-hydroxy-6-methyltetrahydro-2H-pyran-2-yl)oxy)-8-methoxy-4,6,8,10,12,12-hexamethyl-1-oxa-4-azacyclotridecane-11,13-dione], the MIC in the assay on A. baumannii MP-15 was more than 32 µg/mL; against P. aeruginosa MP-3, more than 32 µg/mL; in the assay with E. coli MP-4 it was less than 4 µg/mL; with S. aureus MP-12, 4 to 32 µg/mL (≈ 6.37 to 51 µM); with K. pneumoniae MP-648 it was less than 4 µg/mL; with K. pneumoniae MP-546, 4 to 32 µg/mL (≈ 6.37 to 51 µM).
On to `CO[C@]1(C)C[C@@H](C)CN(C)[C@H]([C@@H](O)C2CCN(C(C)C)CC2)COC(=O)C(C)(C)C(=O)[C@H](C)[C@H]1O[C@@H]1O[C@H](C)C[C@H](N(C)C)[C@H]1O` [Compound 27], for which the MIC in the assay on A. baumannii MP-15 was more than 32 µg/mL; in the assay on P. aeruginosa MP-3, more than 32 µg/mL; against E. coli MP-4, 4 to 32 µg/mL (≈ 6.1 to 48.8 µM); with S. aureus MP-12, more than 32 µg/mL; against K. pneumoniae MP-648, more than 32 µg/mL; against K. pneumoniae MP-546, 4 to 32 µg/mL (≈ 6.1 to 48.8 µM).
Regarding `CCCN1C[C@H](C)C[C@@](C)(OC)[C@H](O[C@@H]2O[C@H](C)C[C@H](N(C)C)[C@H]2O)[C@@H](C)C(=O)C(C)(C)C(=O)OC[C@H]1CC1CCN(C)CC1` [Compound 95, (3R,6R,8R,9R,10R)-9-(((2S,3R,4S,6R)-4-(dimethylamino)-3-hydroxy-6-methyltetrahydro-2H-pyran-2-yl)oxy)-8-methoxy-6,8,10,12,12-pentamethyl-3-((1-methylpiperidin-4-yl)methyl)-4-propyl-1-oxa-4-azacyclotridecane-11,13-dione], the MIC in the assay on A. baumannii MP-15 is 4 to 32 µg/mL (≈ 6.25 to 50 µM); in the assay on P. aeruginosa MP-3, more than 32 µg/mL; against E. coli MP-4 it was less than 4 µg/mL; in the assay on S. aureus MP-12, 4 to 32 µg/mL (≈ 6.25 to 50 µM); in the assay on K. pneumoniae MP-648 it was less than 4 µg/mL; with K. pneumoniae MP-546, less than 4 µg/mL.
Regarding `CO[C@]1(C)C[C@@H](C)CN(C)[C@@H](CCCN(C)C2CC2)COC(=O)C(C)(C)C(=O)[C@H](C)[C@H]1O[C@@H]1O[C@H](C)C[C@H](N(C)C)[C@H]1O` [Compound 90, (3S,6R,8R,9R,10R)-3-(3-(cyclopropyl(methyl)amino)propyl)-9-(((2S,3R,4S,6R)-4-(dimethylamino)-3-hydroxy-6-methyltetrahydro-2H-pyran-2-yl)oxy)-8-methoxy-4,6,8,10,12,12-hexamethyl-1-oxa-4-azacyclotridecane-11,13-dione], the MIC in the assay with A. baumannii MP-15 is more than 32 µg/mL; against P. aeruginosa MP-3 it was more than 32 µg/mL; with E. coli MP-4, less than 4 µg/mL; in the assay with S. aureus MP-12 it was 4 to 32 µg/mL (≈ 6.54 to 52.3 µM); against K. pneumoniae MP-648, 4 to 32 µg/mL (≈ 6.54 to 52.3 µM); with K. pneumoniae MP-546, less than 4 µg/mL.
Consider `CCCN1C[C@H](C)C[C@@](C)(OC)[C@H](O[C@@H]2O[C@H](C)C[C@H](N(C)C)[C@H]2O)[C@@H](C)C(=O)C(C)(C)C(=O)OC[C@@H]1CCCN1Cc2ccccc2C1` [Compound 126, (3S,6R,8R,9R,10R)-9-(((2S,3R,4S,6R)-4-(dimethylamino)-3-hydroxy-6-methyltetrahydro-2H-pyran-2-yl)oxy)-3-(3-(isoindolin-2-yl)propyl)-8-methoxy-6,8,10,12,12-pentamethyl-4-propyl-1-oxa-4-azacyclotridecane-11,13-dione], for which the MIC in the assay on A. baumannii MP-15 is 4 to 32 µg/mL (≈ 5.81 to 46.5 µM); in the assay with P. aeruginosa MP-3 it was more than 32 µg/mL; in the assay on E. coli MP-4, less than 4 µg/mL; with S. aureus MP-12 it was less than 4 µg/mL; in the assay on K. pneumoniae MP-648 it was less than 4 µg/mL; in the assay with K. pneumoniae MP-546, less than 4 µg/mL.
For the molecule `CO[C@]1(C)C[C@@H](C)CN(C)[C@@H](CCCN2CCc3ccccc3C2)COC(=O)C(C)(C)C(=O)[C@H](C)[C@H]1O[C@@H]1O[C@H](C)C[C@H](N(C)C)[C@H]1O` [Compound 120, (3S,6R,8R,9R,10R)-3-(3-(3,4-dihydroisoquinolin-2 (1H)-yl)propyl)-9-(((2S,3R,4S,6R)-4-(dimethylamino)-3-hydroxy-6-methyltetrahydro-2H-pyran-2-yl)oxy)-8-methoxy-4,6,8,10,12,12-hexamethyl-1-oxa-4-azacyclotridecane-11,13-dione], the MIC with A. baumannii MP-15 is 4 to 32 µg/mL (≈ 5.94 to 47.5 µM); with P. aeruginosa MP-3, more than 32 µg/mL; in the assay on E. coli MP-4, less than 4 µg/mL; with S. aureus MP-12, less than 4 µg/mL; in the assay on K. pneumoniae MP-648, less than 4 µg/mL; against K. pneumoniae MP-546, less than 4 µg/mL.
For `CO[C@]1(C)C[C@@H](C)CN(C)[C@@H](CCCN(C)C2CCCC2)COC(=O)C(C)(C)C(=O)[C@H](C)[C@H]1O[C@@H]1O[C@H](C)C[C@H](N(C)C)[C@H]1O` [Compound 99, (3S,6R,8R,9R,10R)-3-(3-(cyclopentyl(methyl)amino)propyl)-9-(((2S,3R,4S,6R)-4-(dimethylamino)-3-hydroxy-6-methyltetrahydro-2H-pyran-2-yl)oxy)-8-methoxy-4,6,8,10,12,12-hexamethyl-1-oxa-4-azacyclotridecane-11,13-dione], the MIC was more than 32 µg/mL with A. baumannii MP-15; more than 32 µg/mL in the assay with P. aeruginosa MP-3; less than 4 µg/mL in the assay on E. coli MP-4; 4 to 32 µg/mL (≈ 6.25 to 50 µM) with S. aureus MP-12; less than 4 µg/mL against K. pneumoniae MP-648; less than 4 µg/mL against K. pneumoniae MP-546.
With `CO[C@]1(C)C[C@@H](C)CN(C)[C@@H](CCCN2CCC[C@H]2C)COC(=O)C(C)(C)C(=O)[C@H](C)[C@H]1O[C@@H]1O[C@H](C)C[C@H](N(C)C)[C@H]1O` [Compound 122, (3S,6R,8R,9R,10R)-9-(((2S,3R,4S,6R)-4-(dimethylamino)-3-hydroxy-6-methyltetrahydro-2H-pyran-2-yl)oxy)-8-methoxy-4,6,8,10,12,12-hexamethyl-3-(3-((R)-2-methylpyrrolidin-1-yl)propyl)-1-oxa-4-azacyclotridecane-11,13-dione], the MIC with A. baumannii MP-15 was more than 32 µg/mL; with P. aeruginosa MP-3, more than 32 µg/mL; against E. coli MP-4, less than 4 µg/mL; with S. aureus MP-12 it was 4 to 32 µg/mL (≈ 6.39 to 51.1 µM); against K. pneumoniae MP-648, less than 4 µg/mL; against K. pneumoniae MP-546 it was less than 4 µg/mL.
With `CO[C@]1(C)C[C@@H](C)CN(C)[C@H](CC2CCN(C3CCCC3)CC2)COC(=O)C(C)(C)C(=O)[C@H](C)[C@H]1O[C@@H]1O[C@H](C)C[C@H](N(C)C)[C@H]1O` [Compound 60], the MIC is more than 32 µg/mL in the assay on A. baumannii MP-15; more than 32 µg/mL against P. aeruginosa MP-3; less than 4 µg/mL in the assay with E. coli MP-4; 4 to 32 µg/mL (≈ 6.01 to 48.1 µM) in the assay with S. aureus MP-12; less than 4 µg/mL against K. pneumoniae MP-648; less than 4 µg/mL with K. pneumoniae MP-546.
`COCCCN1CCC(C[C@@H]2COC(=O)C(C)(C)C(=O)[C@H](C)[C@@H](O[C@@H]3O[C@H](C)C[C@H](N(C)C)[C@H]3O)[C@](C)(OC)C[C@@H](C)CN2C)CC1` [Compound 50]: the MIC was more than 32 µg/mL in the assay with A. baumannii MP-15; more than 32 µg/mL in the assay on P. aeruginosa MP-3; less than 4 µg/mL with E. coli MP-4; 4 to 32 µg/mL (≈ 5.97 to 47.8 µM) with S. aureus MP-12; less than 4 µg/mL in the assay on K. pneumoniae MP-648; less than 4 µg/mL in the assay with K. pneumoniae MP-546.
With `CO[C@]1(C)C[C@@H](C)CN(C)[C@@H](CC2CCN(CC3CC=CCC3)CC2)COC(=O)C(C)(C)C(=O)[C@H](C)[C@H]1O[C@@H]1O[C@H](C)C[C@H](N(C)C)[C@H]1O` (stereo partly drawn) [Compound 73], the MIC with A. baumannii MP-15 is more than 32 µg/mL; in the assay with P. aeruginosa MP-3, more than 32 µg/mL; in the assay on E. coli MP-4 it was less than 4 µg/mL; in the assay with S. aureus MP-12, 4 to 32 µg/mL (≈ 5.78 to 46.2 µM); against K. pneumoniae MP-648, 4 to 32 µg/mL (≈ 5.78 to 46.2 µM); in the assay on K. pneumoniae MP-546 it was less than 4 µg/mL.
With `CO[C@]1(C)C[C@@H](C)CN(C)[C@H](CC2CCN(CC3CC3)CC2)COC(=O)C(C)(C)C(=O)[C@H](C)[C@H]1O[C@@H]1O[C@H](C)C[C@H](N(C)C)[C@H]1O` [Compound 57], the MIC in the assay with A. baumannii MP-15 is more than 32 µg/mL; in the assay with P. aeruginosa MP-3, more than 32 µg/mL; against E. coli MP-4 it was less than 4 µg/mL; in the assay with S. aureus MP-12, 4 to 32 µg/mL (≈ 6.14 to 49.1 µM); in the assay on K. pneumoniae MP-648, less than 4 µg/mL; against K. pneumoniae MP-546, less than 4 µg/mL.
In the case of `CO[C@]1(C)C[C@@H](C)CN(C)[C@@H](CCCN2CCNC(=O)C2)COC(=O)C(C)(C)C(=O)[C@H](C)[C@H]1O[C@@H]1O[C@H](C)C[C@H](N(C)C)[C@H]1O` [Compound 115, (3S,6R,8R,9R,10R)-9-(((2S,3R,4S,6R)-4-(dimethylamino)-3-hydroxy-6-methyltetrahydro-2H-pyran-2-yl)oxy)-8-methoxy-4,6,8,10,12,12-hexamethyl-3-(3-(3-oxopiperazin-1-yl)propyl)-1-oxa-4-azacyclotridecane-11,13-dione], the MIC in the assay with A. baumannii MP-15, against P. aeruginosa MP-3, in the assay with E. coli MP-4, in the assay on S. aureus MP-12, against K. pneumoniae MP-648 and against K. pneumoniae MP-546 was more than 32 µg/mL in each case.
As for `CO[C@]1(C)C[C@@H](C)CN(C)[C@@H](CCCN2Cc3ccccc3C2)COC(=O)C(C)(C)C(=O)[C@H](C)[C@H]1O[C@@H]1O[C@H](C)C[C@H](N(C)C)[C@H]1O` [Compound 112], the MIC with A. baumannii MP-15 is 4 to 32 µg/mL (≈ 6.06 to 48.5 µM); in the assay with P. aeruginosa MP-3 it was more than 32 µg/mL; in the assay on E. coli MP-4, less than 4 µg/mL; with S. aureus MP-12, less than 4 µg/mL; in the assay with K. pneumoniae MP-648, less than 4 µg/mL; with K. pneumoniae MP-546 it was less than 4 µg/mL.
Take `CCCCCCCN1CCC([C@@H](O)[C@H]2COC(=O)C(C)(C)C(=O)[C@H](C)[C@@H](O[C@@H]3O[C@H](C)C[C@H](N(C)C)[C@H]3O)[C@](C)(OC)C[C@@H](C)CN2C)CC1` [Compound 22]: the MIC was more than 32 µg/mL with A. baumannii MP-15; more than 32 µg/mL with P. aeruginosa MP-3; less than 4 µg/mL in the assay with E. coli MP-4; more than 32 µg/mL in the assay on S. aureus MP-12; more than 32 µg/mL against K. pneumoniae MP-648; 4 to 32 µg/mL (≈ 5.62 to 44.9 µM) with K. pneumoniae MP-546.
